Test results published in ChEMBL document CHEMBL4665658, “Quinoline and thiazolopyridine allosteric inhibitors of MALT1” (Bioorg Med Chem Lett, 2019).

Assays:
[1] = target: Trypsin (Homo sapiens) (UniProt P07477+P07478+P35030); test: Inhibition of trypsin (unknown origin) at 10 uM; format: protein assay
[2] = target: Urokinase-type plasminogen activator (Homo sapiens) (UniProt P00749); test: Inhibition of urokinase (unknown origin) at 10 uM
[3] = species: Homo sapiens; test: Inhibition of tryptase (unknown origin) at 10 uM
[4] = system: OCI-Ly3; test: Antiproliferative activity against human OCILY3 cells by cell proliferation assay; format: functional, cell-based
[5] = species: Homo sapiens; test: Inhibition of Calpain (unknown origin) at 10 uM
[6] = target: T1, Caspase-6 (Homo sapiens) (UniProt P55212); test: Inhibition of Caspase 6 (unknown origin) at 10 uM
T1 sequence (whole entry): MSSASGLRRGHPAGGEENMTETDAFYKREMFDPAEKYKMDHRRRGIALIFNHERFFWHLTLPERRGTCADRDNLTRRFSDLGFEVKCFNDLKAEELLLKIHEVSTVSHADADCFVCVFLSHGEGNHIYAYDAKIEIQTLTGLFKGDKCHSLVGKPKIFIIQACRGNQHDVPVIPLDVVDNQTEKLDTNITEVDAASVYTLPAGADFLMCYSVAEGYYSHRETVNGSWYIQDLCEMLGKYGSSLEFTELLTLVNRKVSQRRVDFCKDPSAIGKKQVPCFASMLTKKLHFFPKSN

[7] = Metabolic stability in mouse microsome assessed as half life; format: ADME; set-up: dose or concentration left out as unconfirmed; conditions: microsomes, read-out: Stabilty
[8] = target: T2, Pro-cathepsin H (Homo sapiens) (UniProt P09668); test: Inhibition of cathepsin H (unknown origin) at 10 uM
T2 sequence (whole entry): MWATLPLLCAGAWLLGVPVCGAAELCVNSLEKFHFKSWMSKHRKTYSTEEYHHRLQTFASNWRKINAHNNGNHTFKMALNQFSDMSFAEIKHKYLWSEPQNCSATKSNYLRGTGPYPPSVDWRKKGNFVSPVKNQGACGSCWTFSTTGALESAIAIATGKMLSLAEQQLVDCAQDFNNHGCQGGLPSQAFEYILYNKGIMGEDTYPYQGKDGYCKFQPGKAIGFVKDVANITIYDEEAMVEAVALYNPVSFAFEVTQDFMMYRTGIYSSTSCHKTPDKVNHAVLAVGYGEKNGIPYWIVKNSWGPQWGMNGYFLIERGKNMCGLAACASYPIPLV

[9] = Plasma protein binding in mouse assessed as unbound fraction; format: ADME, cell-free; set-up: dose or concentration left out as unconfirmed; conditions: read-out: PPB
[10] = Oral bioavailability in mouse at 5 mg/kg; format: ADME, organism-based; conditions: in vivo
[11] = AUC (0 to infinity) in mouse at 1 mg/kg, iv or 5 mg/kg, po; format: ADME, organism-based; set-up: dose 5 mg/kg; conditions: in vivo
[12] = Aqueous solubility of the compound at pH 7; format: physicochemical; conditions: aqueous medium
[13] = target: T3, Caspase-4 (Homo sapiens) (UniProt P49662); test: Inhibition of Caspase 4 (unknown origin) at 10 uM
T3 sequence (whole entry): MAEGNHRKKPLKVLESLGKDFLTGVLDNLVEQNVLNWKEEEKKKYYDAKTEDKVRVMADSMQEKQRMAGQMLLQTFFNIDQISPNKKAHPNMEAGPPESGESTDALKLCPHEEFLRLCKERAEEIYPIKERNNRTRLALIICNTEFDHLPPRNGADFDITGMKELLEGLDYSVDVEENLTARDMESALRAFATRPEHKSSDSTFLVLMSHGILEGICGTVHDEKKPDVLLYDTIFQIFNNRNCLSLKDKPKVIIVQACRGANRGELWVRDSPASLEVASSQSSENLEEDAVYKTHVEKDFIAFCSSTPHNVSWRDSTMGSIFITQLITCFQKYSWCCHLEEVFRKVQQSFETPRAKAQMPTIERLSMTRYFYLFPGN

[14] = Metabolic stability in human microsome assessed as half life; format: ADME; set-up: dose or concentration left out as unconfirmed; conditions: microsomes, read-out: Stabilty
[15] = target: T4, Cathepsin K (Homo sapiens) (UniProt P43235); test: Inhibition of cathepsin K (unknown origin) at 10 uM
T4 sequence (whole entry): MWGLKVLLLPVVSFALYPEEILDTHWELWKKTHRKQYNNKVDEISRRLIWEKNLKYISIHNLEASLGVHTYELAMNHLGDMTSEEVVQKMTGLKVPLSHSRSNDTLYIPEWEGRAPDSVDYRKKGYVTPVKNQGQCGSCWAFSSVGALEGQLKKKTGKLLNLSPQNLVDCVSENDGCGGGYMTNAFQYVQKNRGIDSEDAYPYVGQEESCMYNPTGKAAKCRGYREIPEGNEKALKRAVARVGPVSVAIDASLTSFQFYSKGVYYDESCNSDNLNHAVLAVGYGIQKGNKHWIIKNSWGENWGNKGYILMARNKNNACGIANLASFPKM

[16] = target: Cathepsin S (Homo sapiens) (UniProt P25774); test: Inhibition of cathepsin S (unknown origin) at 10 uM
Sequence of Cathepsin S (Homo sapiens) (P25774 115-331 limits assumed): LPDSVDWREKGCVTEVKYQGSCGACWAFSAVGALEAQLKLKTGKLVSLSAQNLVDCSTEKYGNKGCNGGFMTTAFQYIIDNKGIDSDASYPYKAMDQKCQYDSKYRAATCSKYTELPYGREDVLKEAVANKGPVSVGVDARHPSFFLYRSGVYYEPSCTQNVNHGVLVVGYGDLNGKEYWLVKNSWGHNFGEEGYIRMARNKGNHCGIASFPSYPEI

[17] = Half life in mouse at 1 mg/kg, iv or 5 mg/kg, po; format: ADME, organism-based; conditions: in vivo
[18] = target: Caspase-8 (Homo sapiens) (UniProt Q14790); test: Inhibition of Caspase 8 (unknown origin) at 10 uM
Sequence of Caspase-8 (Homo sapiens) (Q14790 217-374 limits assumed): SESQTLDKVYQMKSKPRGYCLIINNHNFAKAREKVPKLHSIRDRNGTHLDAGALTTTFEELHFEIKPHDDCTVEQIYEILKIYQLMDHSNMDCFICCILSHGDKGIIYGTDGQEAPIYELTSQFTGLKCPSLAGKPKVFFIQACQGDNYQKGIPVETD
Sequence of Caspase-8 (Homo sapiens) (Q14790 385-479 limits assumed): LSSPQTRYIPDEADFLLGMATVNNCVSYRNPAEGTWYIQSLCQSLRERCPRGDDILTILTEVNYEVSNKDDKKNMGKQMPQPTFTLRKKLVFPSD

[19] = Clearance in mouse at 1 mg/kg, iv; format: ADME, organism-based; conditions: in vivo
[20] = target: T5, Legumain (Homo sapiens) (UniProt Q99538); test: Inhibition of Legumain (unknown origin) at 10 uM
T5 sequence (whole entry): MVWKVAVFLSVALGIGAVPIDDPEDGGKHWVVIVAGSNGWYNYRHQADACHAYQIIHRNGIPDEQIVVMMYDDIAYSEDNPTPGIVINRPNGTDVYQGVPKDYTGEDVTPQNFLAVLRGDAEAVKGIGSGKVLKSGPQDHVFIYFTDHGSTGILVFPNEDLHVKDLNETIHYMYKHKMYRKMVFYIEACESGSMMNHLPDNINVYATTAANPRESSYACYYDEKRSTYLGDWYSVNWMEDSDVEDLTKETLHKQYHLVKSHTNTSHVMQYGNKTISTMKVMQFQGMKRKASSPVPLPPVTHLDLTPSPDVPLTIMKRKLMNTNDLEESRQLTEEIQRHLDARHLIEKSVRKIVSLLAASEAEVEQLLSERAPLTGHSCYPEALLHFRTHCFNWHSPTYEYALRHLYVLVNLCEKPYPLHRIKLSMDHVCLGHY

[21] = target: Prothrombin (Homo sapiens) (UniProt P00734); test: Inhibition of thrombin (unknown origin) at 10 uM
[22] = target: Cathepsin G (Homo sapiens) (UniProt P08311); test: Inhibition of cathepsin G (unknown origin) at 10 uM
Sequence of Cathepsin G (Homo sapiens) (P08311 whole entry): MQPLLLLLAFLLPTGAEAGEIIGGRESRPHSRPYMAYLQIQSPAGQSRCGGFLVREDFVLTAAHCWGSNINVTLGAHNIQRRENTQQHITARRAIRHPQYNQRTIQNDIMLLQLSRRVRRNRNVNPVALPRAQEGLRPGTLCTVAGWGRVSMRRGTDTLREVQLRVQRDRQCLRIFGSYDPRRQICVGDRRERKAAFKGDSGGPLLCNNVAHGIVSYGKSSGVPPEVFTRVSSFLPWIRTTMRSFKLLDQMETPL

[23] = target: Kallikrein-1 (Homo sapiens) (UniProt P06870); test: Inhibition of KLK1 (unknown origin) at 10 uM
Sequence of Kallikrein-1 (Homo sapiens) (P06870 25-262 limits assumed): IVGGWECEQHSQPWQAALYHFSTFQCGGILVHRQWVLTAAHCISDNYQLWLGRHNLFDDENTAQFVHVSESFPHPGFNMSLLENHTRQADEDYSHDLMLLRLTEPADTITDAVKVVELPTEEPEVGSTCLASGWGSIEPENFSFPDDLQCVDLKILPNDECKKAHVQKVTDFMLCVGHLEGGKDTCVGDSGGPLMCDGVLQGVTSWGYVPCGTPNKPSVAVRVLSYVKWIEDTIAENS

[24] = target: Kallikrein-2 (Homo sapiens) (UniProt P20151); test: Inhibition of KLK2 (unknown origin) at 10 uM
Sequence of Kallikrein-2 (Homo sapiens) (P20151 whole entry): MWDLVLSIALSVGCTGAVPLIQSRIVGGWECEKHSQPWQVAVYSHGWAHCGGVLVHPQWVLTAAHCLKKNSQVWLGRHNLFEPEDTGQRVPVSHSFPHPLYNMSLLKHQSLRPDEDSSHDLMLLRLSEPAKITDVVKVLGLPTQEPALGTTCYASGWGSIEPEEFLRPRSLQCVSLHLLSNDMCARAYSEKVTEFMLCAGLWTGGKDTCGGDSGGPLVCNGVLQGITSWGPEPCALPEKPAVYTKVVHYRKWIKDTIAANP

[25] = Plasma protein binding in human assessed as unbound fraction; format: ADME, cell-free; conditions: read-out: PPB
[26] = target: Cathepsin B (Homo sapiens) (UniProt P07858); test: Inhibition of cathepsin B (unknown origin) at 10 uM
[27] = target: Caspase-3 (Homo sapiens) (UniProt P42574); test: Inhibition of Caspase 3 (unknown origin) at 10 uM
Sequence of Caspase-3 (Homo sapiens) (P42574 29-175 limits assumed): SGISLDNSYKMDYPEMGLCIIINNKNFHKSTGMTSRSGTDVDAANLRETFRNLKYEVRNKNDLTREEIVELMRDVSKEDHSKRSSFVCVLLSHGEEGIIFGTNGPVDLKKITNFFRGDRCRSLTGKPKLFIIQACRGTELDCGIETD
Sequence of Caspase-3 (Homo sapiens) (P42574 176-277 limits assumed): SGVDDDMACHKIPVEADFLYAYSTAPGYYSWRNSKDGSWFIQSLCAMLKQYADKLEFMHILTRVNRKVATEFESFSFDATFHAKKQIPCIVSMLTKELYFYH

[28] = target: Procathepsin L (Homo sapiens) (UniProt P07711); test: Inhibition of cathepsin L (unknown origin) at 10 uM
Sequence of Procathepsin L (Homo sapiens) (P07711 114-333 limits assumed): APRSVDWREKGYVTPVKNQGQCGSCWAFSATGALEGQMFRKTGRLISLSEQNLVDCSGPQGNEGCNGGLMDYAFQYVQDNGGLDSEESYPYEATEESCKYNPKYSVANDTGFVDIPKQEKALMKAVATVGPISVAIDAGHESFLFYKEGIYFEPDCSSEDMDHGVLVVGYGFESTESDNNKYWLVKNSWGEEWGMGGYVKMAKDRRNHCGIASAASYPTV

[29] = target: Caspase-10 (Homo sapiens) (UniProt Q92851); test: Inhibition of Caspase 10 (unknown origin) at 10 uM
Sequence of Caspase-10 (Homo sapiens) (Q92851 220-415 limits assumed): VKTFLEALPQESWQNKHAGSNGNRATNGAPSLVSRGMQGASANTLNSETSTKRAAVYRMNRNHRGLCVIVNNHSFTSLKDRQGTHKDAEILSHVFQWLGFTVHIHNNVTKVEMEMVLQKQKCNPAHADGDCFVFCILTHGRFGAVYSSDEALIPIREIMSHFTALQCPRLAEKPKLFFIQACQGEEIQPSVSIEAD
Sequence of Caspase-10 (Homo sapiens) (Q92851 416-521 limits assumed): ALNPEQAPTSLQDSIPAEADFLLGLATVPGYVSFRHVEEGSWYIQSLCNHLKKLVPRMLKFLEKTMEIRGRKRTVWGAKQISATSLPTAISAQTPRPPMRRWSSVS

[30] = target: Caspase-9 (Homo sapiens) (UniProt P55211); test: Inhibition of Caspase 9 (unknown origin) at 10 uM
Sequence of Caspase-9 (Homo sapiens) (P55211 1-315 limits assumed): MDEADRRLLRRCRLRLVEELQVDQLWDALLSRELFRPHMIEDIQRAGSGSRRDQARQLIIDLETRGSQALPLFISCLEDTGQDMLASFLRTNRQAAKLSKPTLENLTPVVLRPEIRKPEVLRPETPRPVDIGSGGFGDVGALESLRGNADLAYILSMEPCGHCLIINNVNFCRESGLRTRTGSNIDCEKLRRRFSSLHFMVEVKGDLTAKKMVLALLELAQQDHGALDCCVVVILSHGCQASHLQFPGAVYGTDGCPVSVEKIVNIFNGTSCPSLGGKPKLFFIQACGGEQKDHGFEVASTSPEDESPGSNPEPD
Sequence of Caspase-9 (Homo sapiens) (P55211 331-416 limits assumed): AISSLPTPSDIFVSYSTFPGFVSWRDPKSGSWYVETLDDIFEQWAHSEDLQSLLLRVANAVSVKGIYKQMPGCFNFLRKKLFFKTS

[31] = target: Caspase-7 (Homo sapiens) (UniProt P55210); test: Inhibition of Caspase 7 (unknown origin) at 10 uM
Sequence of Caspase-7 (Homo sapiens) (P55210 24-198 limits assumed): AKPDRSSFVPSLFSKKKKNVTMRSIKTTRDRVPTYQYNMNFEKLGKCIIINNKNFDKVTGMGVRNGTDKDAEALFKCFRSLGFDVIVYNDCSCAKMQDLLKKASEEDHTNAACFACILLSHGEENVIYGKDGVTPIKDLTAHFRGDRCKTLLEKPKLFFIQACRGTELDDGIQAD
Sequence of Caspase-7 (Homo sapiens) (P55210 207-303 limits assumed): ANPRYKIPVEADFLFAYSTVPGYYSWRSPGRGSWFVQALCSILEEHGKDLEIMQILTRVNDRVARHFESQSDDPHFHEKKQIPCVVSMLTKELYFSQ

[32] = target: Cathepsin D (Homo sapiens) (UniProt P07339); test: Inhibition of cathepsin D (unknown origin) at 10 uM
Sequence of Cathepsin D (Homo sapiens) (P07339 65-162 limits assumed): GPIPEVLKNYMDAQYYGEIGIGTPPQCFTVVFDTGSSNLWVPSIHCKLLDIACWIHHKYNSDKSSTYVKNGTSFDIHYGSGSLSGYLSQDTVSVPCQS
Sequence of Cathepsin D (Homo sapiens) (P07339 169-412 limits assumed): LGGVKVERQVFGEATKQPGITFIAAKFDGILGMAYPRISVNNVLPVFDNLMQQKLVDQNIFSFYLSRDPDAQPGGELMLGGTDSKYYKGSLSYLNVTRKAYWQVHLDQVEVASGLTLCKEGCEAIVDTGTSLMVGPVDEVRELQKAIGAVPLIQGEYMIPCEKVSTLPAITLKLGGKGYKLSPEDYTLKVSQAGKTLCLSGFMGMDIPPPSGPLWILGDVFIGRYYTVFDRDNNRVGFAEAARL

[33] = target: Cathepsin E (Homo sapiens) (UniProt P14091); test: Inhibition of cathepsin E (unknown origin) at 10 uM
Sequence of Cathepsin E (Homo sapiens) (P14091 whole entry): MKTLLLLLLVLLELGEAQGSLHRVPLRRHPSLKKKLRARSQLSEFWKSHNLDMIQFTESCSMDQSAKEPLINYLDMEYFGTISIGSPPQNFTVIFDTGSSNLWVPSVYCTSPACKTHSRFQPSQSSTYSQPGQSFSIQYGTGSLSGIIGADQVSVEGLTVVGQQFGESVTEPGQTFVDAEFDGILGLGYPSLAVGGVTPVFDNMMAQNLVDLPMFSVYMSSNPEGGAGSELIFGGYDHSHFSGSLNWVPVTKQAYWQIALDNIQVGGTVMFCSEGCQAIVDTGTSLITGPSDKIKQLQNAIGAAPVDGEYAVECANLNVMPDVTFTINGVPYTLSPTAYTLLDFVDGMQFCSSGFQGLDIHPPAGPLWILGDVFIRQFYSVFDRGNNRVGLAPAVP

[34] = target: Caspase-1 (Homo sapiens) (UniProt P29466); test: Inhibition of Caspase 1 (unknown origin) at 10 uM
Sequence of Caspase-1 (Homo sapiens) (P29466 120-297 limits assumed): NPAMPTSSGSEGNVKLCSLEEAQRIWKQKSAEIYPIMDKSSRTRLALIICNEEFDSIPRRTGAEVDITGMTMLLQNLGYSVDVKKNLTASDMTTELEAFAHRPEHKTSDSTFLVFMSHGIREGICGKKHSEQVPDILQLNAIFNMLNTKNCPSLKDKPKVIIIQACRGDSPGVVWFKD
Sequence of Caspase-1 (Homo sapiens) (P29466 317-404 limits assumed): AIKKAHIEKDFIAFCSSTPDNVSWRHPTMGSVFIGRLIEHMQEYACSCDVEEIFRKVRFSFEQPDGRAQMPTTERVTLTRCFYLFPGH

[35] = target: Caspase-2 (Homo sapiens) (UniProt P42575); test: Inhibition of Caspase 2 (unknown origin) at 10 uM
Sequence of Caspase-2 (Homo sapiens) (P42575 170-325 limits assumed): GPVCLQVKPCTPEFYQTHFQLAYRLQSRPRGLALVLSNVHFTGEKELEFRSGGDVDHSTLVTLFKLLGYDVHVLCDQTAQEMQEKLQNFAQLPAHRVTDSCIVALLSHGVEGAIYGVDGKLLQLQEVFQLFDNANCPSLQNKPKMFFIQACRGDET
Sequence of Caspase-2 (Homo sapiens) (P42575 334-452 limits assumed): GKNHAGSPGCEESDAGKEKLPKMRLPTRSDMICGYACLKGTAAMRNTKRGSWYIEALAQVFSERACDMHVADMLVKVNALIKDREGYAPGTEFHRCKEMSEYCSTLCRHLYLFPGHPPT

[36] = target: Caspase-5 (Homo sapiens) (UniProt P51878); test: Inhibition of Caspase 5 (unknown origin) at 10 uM
Sequence of Caspase-5 (Homo sapiens) (P51878 137-327 limits assumed): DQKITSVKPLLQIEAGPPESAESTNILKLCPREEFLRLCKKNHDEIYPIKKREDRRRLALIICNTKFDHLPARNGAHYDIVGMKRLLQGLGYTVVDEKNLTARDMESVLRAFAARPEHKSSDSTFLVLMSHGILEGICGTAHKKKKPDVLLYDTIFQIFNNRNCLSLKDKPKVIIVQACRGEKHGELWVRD
Sequence of Caspase-5 (Homo sapiens) (P51878 347-434 limits assumed): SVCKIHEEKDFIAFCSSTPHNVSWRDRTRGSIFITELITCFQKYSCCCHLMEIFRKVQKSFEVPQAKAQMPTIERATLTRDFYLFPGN

[37] = target: Cathepsin L2 (Homo sapiens) (UniProt O60911); test: Inhibition of cathepsin V (unknown origin) at 10 uM
Sequence of Cathepsin L2 (Homo sapiens) (O60911 whole entry): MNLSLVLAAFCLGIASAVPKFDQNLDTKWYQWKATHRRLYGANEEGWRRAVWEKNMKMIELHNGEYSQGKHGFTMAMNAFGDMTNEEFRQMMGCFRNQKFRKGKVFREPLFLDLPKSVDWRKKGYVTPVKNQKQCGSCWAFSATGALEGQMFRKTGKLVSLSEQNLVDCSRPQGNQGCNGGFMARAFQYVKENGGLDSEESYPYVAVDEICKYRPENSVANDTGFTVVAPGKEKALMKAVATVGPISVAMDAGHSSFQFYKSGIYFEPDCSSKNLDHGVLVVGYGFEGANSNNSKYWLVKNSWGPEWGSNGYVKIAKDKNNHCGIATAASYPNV

[38] = target: Coagulation factor X (Homo sapiens) (UniProt P00742); test: Inhibition of factor Xa (unknown origin) at 10 uM

SMILES	inhibition [1] [%]	inhibition [2] [%]	inhibition [3] [%]	EC50 [4] [nM]	inhibition [5] [%]	inhibition [6] [%]	half-life [7] [h]	inhibition [8] [%]	fraction unbound [9]	bioavailability [10] [%]	AUC(0-inf) [11] [ng·h/mL]	inhibition [13] [%]	half-life [14] [h]	inhibition [15] [%]	inhibition [16] [%]	half-life [17] [h]	inhibition [18] [%]	clearance [19] [mL/min/kg]	inhibition [20] [%]	inhibition [21] [%]	also measured
COC(C)(C)c1c(NC(=O)Nc2cnc(-n3nccn3)c(Cl)c2)cnc2ccc(F)cc12	16.7	14.9	19.6	410	10.3	6.5	> 3	6.3	0.012	30	8200	15.8	1.97	21.5	23	2.7	13.9	4	42.5	22.3	solubility [12]: < 4 µM; inhibition [22]: -3.3%; inhibition [23]: -6.2%
CCOC(C)c1c(NC(=O)Nc2cnc(-n3nccn3)c(Cl)c2)cnc2sc(C)nc12 (stereo not given)	1.9	22	2	360	-9.4	-3.9	2.12	14.1	0.022	19	10100	9	0.717	11.8	15.7	3.2	10.8	1.6	-4.2	18.8	inhibition [24]: -2.6%; fraction unbound [25]: 0.025; solubility [12]: < 4 µM; inhibition [26]: 1%; inhibition [27]: 1%; inhibition [28]: 21.9%; inhibition [29]: -5.2%; inhibition [30]: 17.5%; inhibition [23]: -9%
COC(C)c1c(NC(=O)Nc2cnc(-n3nccn3)c(Cl)c2)cnc2ccc(F)cc12 (stereo not given)	–	–	–	270	–	–	> 3	–	0.006	7	3370	–	> 3	–	–	12.2	–	1.4	–	–	fraction unbound [25]: 0.002
CO[C@@H](C)c1c(NC(=O)Nc2cnc(-n3nccn3)c(Cl)c2)cnc2cc(Cl)nn12	100	108	99.4	120	98.8	88.1	–	98.8	–	–	–	110	–	102	100	–	99.7	–	88.4	98.7	inhibition [31]: 98.1%; inhibition [32]: 99.8%; inhibition [24]: 94.8%; inhibition [33]: 100%; inhibition [34]: 99.7%; inhibition [35]: 87.3%; inhibition [26]: 99.9%; inhibition [27]: 99.9%; inhibition [36]: 92.6%; inhibition [28]: 99.7%; inhibition [37]: 99%; inhibition [38]: 99.8%; inhibition [29]: 89.9%; inhibition [30]: 89.2%; inhibition [22]: 92.5%; inhibition [23]: 99.7%
